Data published in US12709645B2, “Targeting gene amplification in cancer using triplex formation as a therapeutic strategy” (Yale University, priority 2018, dated 2026).

Tests used:
BT474 cells [1] = test: Neutral comet assay in BT474 cells; type: cell-based, human; conditions: 24 hours post-treatment
Method: (§1) Cells were seeded in six-well plates at a density of 2-4×10^5 cells per well the day before transfection. Cells were transfected with 2 μg of HER2-targeted TFO or MIX24 using Oligofectamine (Invitrogen) or Dharmafect-1 (Dharmacon) transfection reagent. Transfection was performed as per manufacturer's instructions. siRNA directed against p53, XPD and non-target controls (ON-Target plus SMARTpool reagents; (Dharmacon) were transfected into BT474 cells using Dharmafect-1 transfection reagent (Dharmacon) according to the manufacturers instructions. Western blot analysis was used to confirm knockdown of protein.
(§2) Comet Assay. Neutral cornet assays were performed 24 h post TFO-transfection as per the manufacturers instructions (Trevigen) with the adjustment of 3.5×10^5 cells/ml for each single cell suspension and 30 minutes electrophoresis. Comets were visualized using an Axiovert 200 microscope and analyzed with Autocomet software. Approximately 100-200 comets were analyzed per experiment. Results were expressed as mean tail moment.

BT474 cells [2] = test: Immunofluorescence of γH2AX and 53BP1 foci in BT474 cells; type: cell-based, human
Method: (§3) Immunofluorescence. Cells were seeded onto UV-irradiated coverslips and were treated for 24 h with HER2-205, MIX24, or a mock transfection. Cells were processed 24 h post-transfection, fixed with 4% formaldehyde and then incubated with ice-cold 100% methanol for 20 minutes followed by a methanol and acetone solution (1:1) for 20 minutes each at −20° C. After washing with PBS, cells were blocked with blocking buffer (4% BSA, 0.2% Triton X-100 in PBS) for 30 minutes and then incubated overnight with the following primary antibodies: γH2AX (1:500; Cell Signaling or Millipore) and 53BP1 (1:100; Santa Cruz) in blocking buffer at 4° C. After three washes, cells were incubated with secondary antibodies Alexa 488 F(ab′)2 fragment goat anti-rabbit IgG or Alexa 568 F(ab′)2 fragment goat anti-mouse IgG (1:1000; Molecular Probes) for 1 h at room temperature. Cells were then mounted on microscope glass slides with anti-fade mounting media containing DAPI (Life Technologies), and pictures were taken with a Leica SP5 microscope. Immunofluorescence experiments were repeated for validation.

[3] = test system: cell lines containing multiple copies of the HER2 gene; test: Neutral comet assay in breast cancer cell lines; type: cell-based, human; conditions: 24 h after treatment
Method: (§4) Cell Lines and Transfections. Human breast cancer cell lines were obtained from ATCC and routinely tested for mycoplasma. The human cell lines, MDA-MB-453, SKBR3, and BT474 are HER2-amplified breast cancer cell lines. BT20 and MCF7 cells are non-amplified breast cancer cell lines. MCF-10A is a non-tumorigenic breast epithelial cell line. PEO1 and SKOV3 are human ovarian cancer cell lines with HER2 gene amplification.
as §1
Comet Assay. […] Comets were visualized using an Axiovert 200 microscope and analyzed with Autocomet software. Approximately 100-200 comets were analyzed per experiment. Results were expressed as mean tail moment.

PE01 and SKOV3 cells [4] = test: Monolayer growth survival assay in ovarian cancer cells; type: cell-based, human; conditions: 72 h after treatment
Method: Survival Assay. Cell survival seas assayed by visualization of monolayer growth. Briefly, cells were plated at a defined density in 6 or 12-well dishes and treated with either transfection reagent alone (mock), MIX24, or HER2-205 as previously described. Monolayers were visualized by staining cells with crystal violet 72 h post-treatment.

Chk1 = test: Western blot of DNA damage response protein phosphorylation; type: cell-based, human; conditions: HER2-amplified vs normal copy number cells
Method: (§5) Western blotting. Whole cell lysates were prepared from floating and adherent cells using RIPA buffer according to standard protocols. Total protein (30-50 μg per sample) was resolved by SDS-PAGE. Proteins were detected by a standard immunoblot protocol using the following primary antibodies: cleaved PARP, cleaved caspase 3, γH2AX, XPD, p53, HER2, pHER2 ([…]), HER3, pHER3 (Y1289), HER4, pHER4 (Y1284), EGFR, pEGFR (Y1068), Chk1, pChk1(S345), pChk2 (T68), and Chk2 (Cell Signaling Technology); pH2AX (tyrosine 142; EMD Millipore); tubulin (clone B-512; Sigma), and GAPDH-HRP (Proteintech). Each experiment was repeated with independent sample preparation a minimum of three times, and representative western blots are shown.

PE01 and SKOV3 cells [5] = test: Immunofluorescence of γH2AX foci in ovarian cancer cells; type: cell-based, human; conditions: 24 h
Method: as §3

HER2 [6] = test: Western blot of total HER2 protein and phosphorylation levels; type: cell-based, human; conditions: HER2-positive cells compared to control samples
Method: as §5

[7] = test system: BT474 human breast cancer tumors; test: BT474 breast cancer subcutaneous xenograft model; type: in vivo, athymic nude mice; conditions: for tumor growth relative to controls / tumor tripling time post-initial dose: 20 mg/kg IP, 3 doses over 7 days
Method: Six to seven-week old female BALB/c athymic, ovariectomized nude mice (Harlan Sprague-Dawley) were implanted with 0.72 mg, 60-day release 17β-estradiol pellets (Innovative Research). […] Tumor volumes in each group were then monitored and mice were sacrificed when tumor volumes reached 1000 mm^3. Error bars represent standard error of the mean. Tumor tripling time was calculated as the time required for tumors to increase in volume […] over baseline (defined as tumor volume before administration of dose on first day of treatment). Harvested tumors were fixed in 10% neutral buffered formalin and processed by Yale Pathology Tissue Services for H&E, Caspase 3, HER2, and Ki67. Images were taken at 4× magnification.

HER2-positive cell lines = test: Annexin-V apoptosis analysis in breast cancer cell lines; type: cell-based, human; conditions: 24 h post TFO-treatment
Method: as §4
(§6) Apoptosis analysis. Cells (2−4×10^5) were seeded in six-well plates 24 h prior to treatment with MIX24, HER2-1 or HER2-205 (2 μg). Post-treatment analysis was performed using the Annexin V-FITC/PI apoptosis detection kit (BD Pharmingen) according to the manufacturers protocol. Apoptotic frequency was calculated as the combined percentage of early and late apoptotic cells. Data analysis was performed using Flow-Jo software.

[8] = test system: SKOV3 ovarian cancer xenografts; test: SKOV3 ovarian cancer subcutaneous xenograft model; conditions: HER2-205 20 mg/kg vs cisplatin 10 mg/kg, IP
Method: To establish an ovarian cancer model, female BALB/c athymic nude mice were injected subcutaneously in the flank with 5×10^6 SKOV3 cells suspended in 100 μl equal volume of media and Matrigel. Mice bearing a tumor of about 100 mm^3 in volume were randomly divided into three treatment groups: vehicle (PBS), n=5; HER2-targeted TFO, HER2-205, n=5; and cisplatin, n=7. […] Tumor volumes were monitored and tumor tripling times were calculated as described above.

BT474 cells [9] = test: Apoptosis after XPD knockdown in BT474 cells (Western blot); type: cell-based, human; conditions: siRNA XPD knockdown
Method: as §1, §5

PE01 and SKOV3 cells [10] = test: Neutral comet assay in ovarian cancer cells; type: cell-based, human
Method: as §2

PE01 and SKOV3 cells [11] = test: Apoptosis in ovarian cancer cells (Annexin V, cleaved PARP); type: cell-based, human; conditions: Annexin V 48 h post-treatment
Method: as §5, §6

HER2 [12] = test: HER2 gene expression by RT-PCR; type: cell-based, human; conditions: non-amplified and amplified breast cancer cell lines
Method: Gene Expression. RNA was extracted from snap-frozen cells using the RNeasy Kit (Qiagen) per the manufacturers protocol. cDNA synthesis was carried out with 10 μg of RNA via reverse transcription reactions and the High-Capacity cDNA Reverse Transcription Kit (ThermoFisher Scientific). cDNA (10 ng) was then combined with TaqMan Universal PCR master mix (20 μl) (Applied Biosystem) and primers specific to HER2 (HER2, Hs01001580_m1, ThermoFisher Scientific) or the internal control, β-actin (Hs99999903_m1, ThermoFisher Scientific). qRT-PCR was performed in 96-well optical plates in triplicate for each sample. Briefly, reactions were performed at 50° C. for 2 minutes, followed by 95° C. for 10 minutes. Amplification of the target or control gene was carried out with 40 cycles of the two-step reaction, which included 95° C. for 15 seconds and 1 minute at 60° C. β-actin expression levels were used to normalize the difference between cDNA levels in different samples. Relative expression levels were calculated using the 2(-Delta Delta C(T)) method.

BT474 cells [13] = test: Flow cytometry of phosphorylated ATM; type: cell-based, human; conditions: 24 h
Method: Flow Cytometry. BT474 cells were collected 24 h following treatment with either MIX24 HER2-205. After washing with PBS, cells were incubated with 1% paraformaldehyde for 15 minutes on ice. Cells were then fixed with cold 70% ethanol at −20° C. for 2 h or kept for up to 2 weeks until further analysis. Cells were centrifuged and rinsed with PBS, blocked with PBST buffer (1% w/v bovine serum albumin and 0.2% v/v Triton X-100 in PBS) for 15 minutes on ice, followed by another PBS rinse. Cells were first incubated with anti-phospho-ATM (S1981, EMD Millipore) in PBST at 1:100 dilution for 1 h at room temperature. Cells were rinsed with PBST and incubated with anti-rabbit IgG Fab2 Alexa 488 (Molecular Probes) at 1:100 dilution at room temperature for 1 h, and then rinsed with PBST. Acquisition of labeled cells and analysis of data was completed using a flow cytometer (FACS Calibur) and FlowJo software respectively.

[14] = 24 h after single dose 20 mg/kg

With “HER2-40118: TFO targeting intron 19 of the HER2 gene, 5′-GGGGGAAATAGGGAGGGTGGGG-3′ (triplex-forming oligonucleotide, chemistry not given here, further chemistry not given here)” the “DSBs as indicated by DNA tail moment” value (BT474 cells [1]) was “significantly, more DSBs”.

In the case of “HER2-205: TFO binding a polypurine sequence in the HER2 coding region, 5′-GAGGAGGAGTGGGAGAATGGGGGG-3′ (DNA GAGGAGGAGTGGGAGAATGGGGGG; DNA, backbone not given here)”, the “colocalization of γH2AX and 53BP1, percent of cells” value (BT474 cells [2]; 24 h) is reported as 49%, the “γH2AX and 53BP1 foci compared to MIX24” value (BT474 cells [2]; 24 h post-treatment) is reported as “substantially increased” and the “DSBs as indicated by DNA tail moment” value [3] is reported as “significantly more DSBs”. For the same substance, the “cell viability (monolayer growth)” value (PE01 and SKOV3 cells [4]) was “reduced cell viability”, the “DSBs as indicated by DNA tail moment” value (BT474 cells [1]) was “significantly, more DSBs” and the “Chk1 phosphorylation at serine 345” value (Chk1) was “observed after HER2-205 treatment in the HER2-amplified cells and not in the cells with normal HER2 gene copy numbers”. The γH2AX foci (PE01 and SKOV3 cells [5]) was “increased”, the “total and activated HER2 levels” value (HER2 [6]) was “remain the same” and the “tumor growth relative to controls” value [7] was “suppressed tumor growth to a significantly greater degree than the controls”. For the same substance, the “tumor tripling time post-initial dose” value [7] was 29 ± 5.7 days, the “proliferation by Ki67 staining in tumor sections” value [7, 14] was “decreased proliferation” and the “tumor cell apoptosis (cleaved caspase 3) in tumor sections” value [7, 14] was “Tumor cell apoptosis”. For the same substance, the “reduction in tumor volumes compared to controls” value ([7]; HER2-positive breast cancer xenografts) was 52%, the “percentage of apoptotic cells (Annexin-V)” value (HER2-positive cell lines) was “higher percentage of apoptotic cells than that with HER2-1” and the “survival (tumors smaller than three times baseline) compared with cisplatin” value ([8]; 3 doses) was “substantial survival advantage”. The “average tumor volume smaller than in cisplatin-treated mice” value ([8]; 3 doses once per week) was 49%, the “phosphorylation of Y142 in H2AX and activation of apoptosis” value (BT474 cells [9]) was “requirement for XPD” and the DNA tail moments (PE01 and SKOV3 cells [10]) was “increased”. The apoptosis (PE01 and SKOV3 cells [11]) was “activated apoptosis”, the HER2 gene expression (HER2 [12]) was “not significantly affected” and the pATM positive cells (BT474 cells [13]) was “increase”.

“MIX24: control mixed-sequence oligonucleotide, 5′-AGTCAGTCAGTCAGTCAGTCAGTC-3′ (DNA AGTCAGTCAGTCAGTCAGTCAGTC; listed as DNA, chemistry not given here) [reference compound]” was tested, and the “tumor growth relative to controls” value [7] was “no impact” and the “tumor tripling time post-initial dose” value [7] was 16.3 ± 6.6 days.

In the case of “HER2-5922-2: TFO targeting intron 2 of the HER2 gene, 5′-GGGAAAGAGGAGGGGGTGAGAGGAGTGGGG-3′ (triplex-forming oligonucleotide, chemistry not given here, further chemistry not given here)”, the “DSBs as indicated by DNA tail moment” value (BT474 cells [1]) is reported as “significantly, more DSBs”.
